Assay results taken from patent US8664243B2, “Sulfonamide compound and crystal thereof” (Asahi Kasei Pharma Corporation, priority 2007, dated 2014).

Tests used:
Assay type in all cases: physicochemical
[1] = Hygroscopicity Test 2 (25° C. and 84% RH; free base, salts and salt mixtures); details: for Appearance / Water content / Purity: 25° C. and 84% RH, dark; for Purity: HPLC
Experimental: (§1) Hygroscopicity of Compound 1 or the substance in the form of a salt can be evaluated by putting a sample on a glass weighing dish, storing the dish in a dark place for a given period of time in an open state at a temperature of 25 to 40° C. under a humidification condition of about 75 to 94% relative humidity, and then observing or measuring appearance, purity, water content and the like of Compound 1 or the substance in the form of a salt. Increase of water content before and after storage especially serves as an important hygroscopic index. For example, the evaluation is preferably performed after storage conditions of 25° C. and 84% RH. • High performance liquid chromatography apparatus: LC-10A Series (Shimadzu) or Agilent 1100 series (Agilent Technologies) • Solution concentration: 500 μg/ml • Injection: 10 μl • Detector: Ultraviolet absorptiometer (measurement wavelength: 245 nm) • Column: XBridge Shield RP18 5 μm, internal diameter: 4.6 mm, length: 15 cm (Waters) • Column temperature: Constant temperature around 40° C. • Mobile phase A: 20 mmol/l Sodium phosphate buffer (pH 7.0) • Mobile phase B: Acetonitrile • Liquid feeding program: A concentration gradient was formed by changing the mixing ratio of the mobile phase A and the mobile phase B as shown in Table 1. • Flow rate: 1.0 ml/minute • Water content measurement apparatus: AQ-7 (Hiranuma Sangyo) • Sample amount: 5 mg • Anolyte: Aqualyte RS (Sigma-Aldrich) • Catholyte: Aqualyte CN (Sigma-Aldrich) Compound 1 obtained by a method similar to the method described in Example 1 (two kinds of lots), the monohydrochloride obtained by the method described in Example 3, the dihydrochloride, and mixtures of the monohydrochloride and the dihydrochloride at ratios of 9:1, 8:2, 6:4, 4:6 and 2:8 were weighed on a glass weighing dish in an amount of each 40 mg, and each sample was stored in a dark place at 25° C. and 84% RH for 2 to 4 weeks. After the storage, appearance was evaluated by visual inspection. Further, purity was measured under the conditions of Test Example 7, and water content was measured under the conditions of Test Example 8.

[2] = Measurement of water content (coulometric titration method); details: as prepared, sample 5 mg
Excerpt: For evaluation of purity of Compound 1 or the substance in the form of a salt, the area percentage method based on HPLC is convenient. For evaluation of water content of Compound 1 or the substance in the form of a salt, the volumetric titration method, the coulometric titration method described in Japanese Pharmacopoeia, General Test Methods, “Water Determination”, the loss on drying test and the like can be used. When sample weight is small, the coulometric titration method can be preferably chosen.

[3] = Hygroscopicity Test 1 (open glass weighing dish, dark place, 25° C. and 84% RH); details: for Appearance / Water content / Purity: 25° C. and 84% RH, dark, open; for Purity: HPLC
Experimental: as §1, with “(Sigma-Aldrich) The” for “(Sigma-Aldrich) Compound 1 obtained by a method similar to the method described in Example 1 (two kinds of lots), the”, “the monohydrobromide obtained by” for “the dihydrochloride, and mixtures of”, “the method described in Example 4,” for “the monohydrochloride”, “dihydrochloride as a control” for “dihydrochloride at ratios of 9:1, 8:2, 6:4, 4:6 and 2:8”, “of” for “of each”, “40 mg each,” for “40 mg,”

[4] = Thermal stability test (sealed glass vial, dark place, 60° C.); details: for Appearance / Water content / Purity: 60° C., dark, sealed vial; for Purity: HPLC
Experimental: Thermal stability of Compound 1 or the substance in the form of a salt can be evaluated by, for example, sealing a sample in a glass vial or the like, storing the vial under a severe temperature condition such as 40 to 80° C. in a dark place for a given period of time, and then observing or measuring appearance, purity, water content and the like of Compound 1 or the substance in the form of a salt. Change of purity before and after storage especially serves as an important index of thermal stability. For example, the evaluation is preferably performed under a storage condition of 60° C. • High performance liquid chromatography apparatus: LC-10A Series (Shimadzu) or Agilent 1100 series (Agilent Technologies) • Solution concentration: 500 μg/ml • Injection: 10 μl • Detector: Ultraviolet absorptiometer (measurement wavelength: 245 nm) • Column: XBridge Shield RP18 5 μm, internal diameter: 4.6 mm, length: 15 cm (Waters) • Column temperature: Constant temperature around 40° C. • Mobile phase A: 20 mmol/l Sodium phosphate buffer (pH 7.0) • Mobile phase B: Acetonitrile • Liquid feeding program: A concentration gradient was formed by changing the mixing ratio of the mobile phase A and the mobile phase B as shown in Table 1. • Flow rate: 1.0 ml/minute • Water content measurement apparatus: AQ-7 (Hiranuma Sangyo) • Sample amount: 5 mg • Anolyte: Aqualyte RS (Sigma-Aldrich) • Catholyte: Aqualyte CN (Sigma-Aldrich) The monohydrochloride obtained by the method described in Example 3, the monohydrobromide obtained by the method described in Example 4, and the dihydrochloride as a control were weighed in a glass vial in an amount of 40 mg each, and the glass vial was sealed. Each sample was stored in a dark place at 60° C. for 2 to 4 weeks, and after the storage, appearance was evaluated by visual inspection. Further, purity was measured under the conditions of Test Example 7, and water content was measured under the conditions of Test Example 8.

[5] = after storage at 25° C. and 84% RH for 4 weeks
[6] = after storage at 60° C. for 4 weeks

Appearance ([1]; after 2 weeks): White
Water content ([1]; after 2 weeks): 0.1%
Appearance ([1]; before storage): White
Water content ([1]; before storage): 0.0%
Purity ([1]; after 2 weeks): 100.0%
Purity ([1]; before storage): 100.0%
Water content [2]: 0.20%
Appearance ([3]; after 2 weeks): White
Water content ([3]; after 2 weeks): 0.23%
Appearance ([3]; after 4 weeks): White
Water content ([3]; after 4 weeks): 0.26%
Appearance ([3]; before storage): White
Water content ([3]; before storage): 0.20%
Purity ([3]; after 2 weeks): 99.8%
Purity ([3]; after 4 weeks): 99.6%
Purity ([3]; before storage): 99.4%
Hygroscopicity compared with the dihydrochloride ([3]; Test Example 10, 25° C. and 84% RH): remarkably lower hygroscopicity
Change of appearance [3, 5]: no change of appearance
Degradation of purity [3, 5]: no degradation of purity
Increase of water content [3, 5]: no substantial increase of water content
Appearance ([4]; after 2 weeks): White
Water content ([4]; after 2 weeks): 0.06%
Appearance ([4]; after 4 weeks): White
Water content ([4]; after 4 weeks): 0.08%
Appearance ([4]; before storage): White
Water content ([4]; before storage): 0.20%
Purity ([4]; after 2 weeks): 99.9%
Purity ([4]; after 4 weeks): 99.7%
Purity ([4]; before storage): 99.4%
Thermal stability compared with the dihydrochloride ([4]; Test Example 9, 60° C.): more satisfactory thermal stability
Change of appearance [4, 6]: no change of appearance
Degradation of purity [4, 6]: no degradation of purity
SMILES: CN[C@H]1CCN(S(=O)(=O)c2cccc3cncc(Cl)c23)C1.Cl [Monohydrochloride, (S)-1-(4-chloro-5-isoquinolinesulfonyl)-3-(methylamino)pyrrolidine monohydrochloride]
Hygroscopicity compared with Compound 1 (free base) and mixtures ([1]; Test Example 11, 25° C. and 84% RH): hygroscopicity lower than any of Compound 1 (free base) and mixtures of the monohydrochloride and the dihydrochloride
